Key:
Alternaia brassicicola = assay: Test Example C: Alternaria sooty spot on cabbage; format: in vivo; conditions: 250 ppm drug solution sprayed on test plant
Source text: Seeds of a test plant (cabbage variety: Shikidori) were planted and cultivated until the cotyledons extended.
<Control Value> Control value=100{1−(n/3)}

Magnaporthe grisea = assay: whole plant or invertebrate; format: in vivo; conditions: 250 ppm drug solution sprayed on test plant
[1] = test system: Blumeria graminis f. sp. hordei; assay: Test Example D: Powdery mildew on barley; conditions: 250 ppm drug solution sprayed on test plant
Phytophthora infestans = assay: whole plant or invertebrate; format: in vivo; conditions: 250 ppm drug solution sprayed on test plant
Botrytis cinerea = assay: Test Example B: Gray mold on tomato; conditions: 250 ppm drug solution sprayed on test plant
Puccinia recondita = assay: Test Example E: Brown rust on wheat; format: in vivo; conditions: 250 ppm drug solution sprayed on test plant
Plasmopara viticola = assay: Test Example G: Downy mildew on vine; conditions: 250 ppm drug solution sprayed (2.5 ml/pot), grape Neomuscat, 7 to 10 days after inoculation
Protocol: Seeds of a test plant (grape variety: Neomuscat) were planted and cultivated until three to four first leaves appeared. In the test, the inventive compounds were dissolved into dimethyl sulfoxide-methanol mixture solution (volume ratio: 9/1), and the resultant solutions were diluted with well water to a concentration of 250 ppm to obtain the drug solutions. The drug solutions were sprayed to the test plant (2.5 ml/pot). After the drug solutions dried, a zoosporangia suspension (1-2×10^4 zoosporangia/ml) of Plasmopara viticola was inoculated to the plant by spraying. After the inoculation, the plant was kept in a mist chamber at room temperature of 20° C. for about 24 hours to promote the onset of disease. The degrees of disease development were investigated 7 to 10 days after the inoculation, and the effectiveness of the drug solutions was evaluated.
In Test Examples described above, the degrees of disease development were evaluated in increments of 0.05 from 0 (as no incidence of disease) to 3 (as the degree of disease development in an untreated plant group). Further, control values were calculated using the following equation based on the degree of disease development.
n=Degree of disease development in each treated group

[2] = test system: Colletotrichum orbiculare; assay: Test Example H: Anthracnose on cucumber; conditions: 250 ppm drug solution sprayed (2.5 ml/pot), cucumber Sagami Hanjiro, 6 to 10 days after inoculation

CCc1cc(Cl)c(=O)n(CC)c1-c1c(F)cc(F)cc1F [compound 386]
Test C control value (Alternaia brassicicola): H (more than 50% control value)
Test A control value (Magnaporthe grisea): H (more than 50% control value)
Test D control value [1]: H (more than 50% control value)
Test F control value (Phytophthora infestans): L (50% or less control value)
Test B control value (Botrytis cinerea): H (more than 50% control value)
Test E control value (Puccinia recondita): H (more than 50% control value)
Test G control value (Plasmopara viticola): H (more than 50% control value)
Test H control value [2]: H (more than 50% control value)

CCc1cc(Br)c(=O)n(CC)c1-c1c(F)cc(F)cc1F [compound 387]
Test C control value (Alternaia brassicicola): H (more than 50% control value)
Test A control value (Magnaporthe grisea): H (more than 50% control value)
Test D control value [1]: H (more than 50% control value)
Test F control value (Phytophthora infestans): L (50% or less control value)
Test B control value (Botrytis cinerea): H (more than 50% control value)
Test E control value (Puccinia recondita): H (more than 50% control value)
Test G control value (Plasmopara viticola): H (more than 50% control value)
Test H control value [2]: H (more than 50% control value)

CCc1ccc(=O)n(CC)c1-c1c(F)cc(OC)cc1F [compound 388]
Test C control value (Alternaia brassicicola): H (more than 50% control value)
Test A control value (Magnaporthe grisea): H (more than 50% control value)
Test D control value [1]: L (50% or less control value)
Test F control value (Phytophthora infestans): L (50% or less control value)
Test B control value (Botrytis cinerea): H (more than 50% control value)
Test E control value (Puccinia recondita): H (more than 50% control value)
Test G control value (Plasmopara viticola): L (50% or less control value)
Test H control value [2]: H (more than 50% control value)

CCCc1cc(Br)c(=O)n(CC)c1-c1c(F)cc(F)cc1F [compound 389]
Test C control value (Alternaia brassicicola): H (more than 50% control value)
Test A control value (Magnaporthe grisea): H (more than 50% control value)
Test D control value [1]: H (more than 50% control value)
Test F control value (Phytophthora infestans): L (50% or less control value)
Test B control value (Botrytis cinerea): H (more than 50% control value)
Test E control value (Puccinia recondita): H (more than 50% control value)
Test G control value (Plasmopara viticola): L (50% or less control value)
Test H control value [2]: H (more than 50% control value)

CCc1cc(Cl)c(=O)n(CC)c1-c1c(F)cc(OC)cc1F [compound 390]
Test C control value (Alternaia brassicicola): H (more than 50% control value)
Test A control value (Magnaporthe grisea): H (more than 50% control value)
Test D control value [1]: H (more than 50% control value)
Test F control value (Phytophthora infestans): L (50% or less control value)
Test B control value (Botrytis cinerea): H (more than 50% control value)
Test E control value (Puccinia recondita): H (more than 50% control value)
Test G control value (Plasmopara viticola): H (more than 50% control value)
Test H control value [2]: H (more than 50% control value)

CCc1cc(Br)c(=O)n(CC)c1-c1c(F)cc(OC)cc1F [compound 391]
Test C control value (Alternaia brassicicola): H (more than 50% control value)
Test A control value (Magnaporthe grisea): H (more than 50% control value)
Test D control value [1]: L (50% or less control value)
Test F control value (Phytophthora infestans): L (50% or less control value)
Test B control value (Botrytis cinerea): H (more than 50% control value)
Test E control value (Puccinia recondita): H (more than 50% control value)
Test G control value (Plasmopara viticola): L (50% or less control value)
Test H control value [2]: H (more than 50% control value)

CCCc1ccc(=O)n(C)c1-c1ccc(F)cc1Br [compound 410]
Test C control value (Alternaia brassicicola): L (50% or less control value)
Test A control value (Magnaporthe grisea): L (50% or less control value)
Test D control value [1]: H (more than 50% control value)
Test F control value (Phytophthora infestans): L (50% or less control value)
Test B control value (Botrytis cinerea): L (50% or less control value)
Test E control value (Puccinia recondita): H (more than 50% control value)
Test G control value (Plasmopara viticola): L (50% or less control value)
Test H control value [2]: L (50% or less control value)

CCCc1ccc(=O)n(CC)c1-c1ccc(OC)cc1C [compound 411]
Test C control value (Alternaia brassicicola): L (50% or less control value)
Test A control value (Magnaporthe grisea): L (50% or less control value)
Test D control value [1]: H (more than 50% control value)
Test F control value (Phytophthora infestans): L (50% or less control value)
Test B control value (Botrytis cinerea): H (more than 50% control value)
Test E control value (Puccinia recondita): H (more than 50% control value)
Test G control value (Plasmopara viticola): L (50% or less control value)
Test H control value [2]: L (50% or less control value)

CCCc1cc(Cl)c(=O)n(CC)c1-c1ccc(OC)cc1C [compound 412]
Test C control value (Alternaia brassicicola): H (more than 50% control value)
Test A control value (Magnaporthe grisea): H (more than 50% control value)
Test D control value [1]: H (more than 50% control value)
Test F control value (Phytophthora infestans): H (more than 50% control value)
Test B control value (Botrytis cinerea): H (more than 50% control value)
Test E control value (Puccinia recondita): H (more than 50% control value)
Test G control value (Plasmopara viticola): L (50% or less control value)
Test H control value [2]: H (more than 50% control value)

CCCc1cc(Br)c(=O)n(CC)c1-c1ccc(OC)cc1C [compound 413]
Test C control value (Alternaia brassicicola): H (more than 50% control value)
Test A control value (Magnaporthe grisea): H (more than 50% control value)
Test D control value [1]: L (50% or less control value)
Test F control value (Phytophthora infestans): L (50% or less control value)
Test B control value (Botrytis cinerea): H (more than 50% control value)
Test E control value (Puccinia recondita): H (more than 50% control value)
Test G control value (Plasmopara viticola): L (50% or less control value)
Test H control value [2]: H (more than 50% control value)

CCCc1cc(Cl)c(=O)n(C)c1-c1ccc(F)cc1Br [compound 414]
Test C control value (Alternaia brassicicola): H (more than 50% control value)
Test A control value (Magnaporthe grisea): H (more than 50% control value)
Test D control value [1]: H (more than 50% control value)
Test F control value (Phytophthora infestans): L (50% or less control value)
Test B control value (Botrytis cinerea): H (more than 50% control value)
Test E control value (Puccinia recondita): H (more than 50% control value)
Test G control value (Plasmopara viticola): L (50% or less control value)
Test H control value [2]: H (more than 50% control value)

CCCc1cc(Br)c(=O)n(C)c1-c1ccc(F)cc1Br [compound 415]
Test C control value (Alternaia brassicicola): H (more than 50% control value)
Test A control value (Magnaporthe grisea): H (more than 50% control value)
Test D control value [1]: L (50% or less control value)
Test F control value (Phytophthora infestans): L (50% or less control value)
Test B control value (Botrytis cinerea): H (more than 50% control value)
Test E control value (Puccinia recondita): H (more than 50% control value)
Test G control value (Plasmopara viticola): L (50% or less control value)
Test H control value [2]: L (50% or less control value)

CCCc1ccc(=O)n(C)c1-c1ccc(OC)cc1Br [compound 416]
Test C control value (Alternaia brassicicola): L (50% or less control value)
Test A control value (Magnaporthe grisea): L (50% or less control value)
Test D control value [1]: L (50% or less control value)
Test F control value (Phytophthora infestans): L (50% or less control value)
Test B control value (Botrytis cinerea): L (50% or less control value)
Test E control value (Puccinia recondita): H (more than 50% control value)
Test G control value (Plasmopara viticola): L (50% or less control value)
Test H control value [2]: L (50% or less control value)

CCCc1cc(Cl)c(=O)n(C)c1-c1ccc(OC)cc1Br [compound 417]
Test C control value (Alternaia brassicicola): H (more than 50% control value)
Test A control value (Magnaporthe grisea): L (50% or less control value)
Test D control value [1]: L (50% or less control value)
Test F control value (Phytophthora infestans): L (50% or less control value)
Test B control value (Botrytis cinerea): H (more than 50% control value)
Test E control value (Puccinia recondita): H (more than 50% control value)
Test G control value (Plasmopara viticola): L (50% or less control value)
Test H control value [2]: H (more than 50% control value)

CCCc1cc(Br)c(=O)n(C)c1-c1ccc(OC)cc1Br [compound 418]
Test C control value (Alternaia brassicicola): H (more than 50% control value)
Test A control value (Magnaporthe grisea): L (50% or less control value)
Test D control value [1]: L (50% or less control value)
Test F control value (Phytophthora infestans): H (more than 50% control value)
Test B control value (Botrytis cinerea): H (more than 50% control value)
Test E control value (Puccinia recondita): H (more than 50% control value)
Test G control value (Plasmopara viticola): L (50% or less control value)
Test H control value [2]: H (more than 50% control value)

CCCc1ccc(=O)n(C)c1-c1ccc(F)cc1C [compound 419]
Test C control value (Alternaia brassicicola): H (more than 50% control value)
Test A control value (Magnaporthe grisea): L (50% or less control value)
Test D control value [1]: L (50% or less control value)
Test F control value (Phytophthora infestans): L (50% or less control value)
Test B control value (Botrytis cinerea): L (50% or less control value)
Test E control value (Puccinia recondita): L (50% or less control value)
Test G control value (Plasmopara viticola): L (50% or less control value)
Test H control value [2]: H (more than 50% control value)

CCCc1cc(Cl)c(=O)n(C)c1-c1ccc(F)cc1C [compound 420]
Test C control value (Alternaia brassicicola): L (50% or less control value)
Test A control value (Magnaporthe grisea): L (50% or less control value)
Test D control value [1]: H (more than 50% control value)
Test F control value (Phytophthora infestans): L (50% or less control value)
Test B control value (Botrytis cinerea): H (more than 50% control value)
Test E control value (Puccinia recondita): H (more than 50% control value)
Test G control value (Plasmopara viticola): L (50% or less control value)
Test H control value [2]: L (50% or less control value)

CCCc1cc(Br)c(=O)n(C)c1-c1ccc(F)cc1C [compound 421]
Test C control value (Alternaia brassicicola): H (more than 50% control value)
Test A control value (Magnaporthe grisea): L (50% or less control value)
Test D control value [1]: H (more than 50% control value)
Test F control value (Phytophthora infestans): L (50% or less control value)
Test B control value (Botrytis cinerea): H (more than 50% control value)
Test E control value (Puccinia recondita): H (more than 50% control value)
Test G control value (Plasmopara viticola): L (50% or less control value)
Test H control value [2]: H (more than 50% control value)

— US11147272B2, “Pyridone compounds and agricultural and horticultural fungicides comprising the same as active ingredients” (MITSUI CHEMICALS AGRO, INC., priority 2017, dated 2021)
